Results taken from paper PMC10486429, “Investigations Using Albumin Binders to Modify the Tissue Distribution Profile of Radiopharmaceuticals Exemplified with Folate Radioconjugates” (Cancers, 2023).

How the values were obtained:
[1] = Radiolytic stability of 177Lu-DOTA-ALBs in PBS (HPLC); format: physicochemical; settings: room temperature, 100 MBq/500 µL PBS
Protocol: The radiolabeling of DOTA-ALBs was carried out under standard labeling conditions at pH 4.5. The ligands (10−100 μM) were mixed with lutetium-177 (no-carrier added [^177Lu]LuCl3; in 0.04 M HCl; ITM GmbH Medical Isotopes, Munich, Germany) to reach molar activities of 25–50 MBq/nmol (Supplementary Materials Section S2). An analytical HPLC system equipped with a C18 column and a radioactivity detector was used for quality control of the radiolabeled DOTA-ALBs (Supplementary Materials Section S2). The ^177Lu-DOTA-ALBs were used for preclinical investigations without separation of the labeled from the unlabeled fraction. The radiolytic stability of the ^177Lu-DOTA-ALBs (50 MBq/nmol) diluted in phosphate-buffered saline (PBS; 100 MBq/500 μL) was assessed in vitro in the absence and presence of L-ascorbic acid (Supplementary Materials Section S3). The n-octanol/PBS distribution coefficients (logD values) were determined using a shake-flask method according to an established protocol (Supplementary Materials Section S4). The logD values were analyzed using a one-way ANOVA with Tukey’s multiple comparisons post-test using GraphPad Prism software (version 8). A p-value of <0.05 was considered a statistically significant difference. […]
S2. Radiolabeling of DOTA-ALBs with Lutetium-177
Purpose: The DOTA-ALBs were labeled with lutetium-177 for subsequent in vitro and […]
Methods: The DOTA-ALBs were dissolved in Milli-Q water at a concentration of 1 mM. Radiolabeling was performed by incubation of the respective DOTA-ALBs with lutetium-177 (no-carrier-added, in 0.04 M HCl; ITM Medical Isotopes GmbH, Munich, Germany) at 95 °C for 10 min in a 1:5 (v/v) mixture of sodium acetate (0.5 M) and HCl (0.05 M) at pH ~4.5 as previously reported. Quality control was performed by reversed-phase HPLC using an aliquot of the radiolabeled DOTA-ALBs (⁓1.5 MBq) diluted in Milli-Q water containing penta-sodium diethylenetriamine pentaacetic acid (Na5-DTPA; 50 µM). The HPLC system (Merck Hitachi LaChrom HPLC) was equipped with a D-7000 interface, a radioactivity detector (LB 508, Berthold Technologies GmbH), a L-6200A pump and a reversed-phase C18 column (XterraTM, 5 µm, 4.6×150 mm, Waters, USA). A linear gradient of 0.1% TFA in Milli-Q water (95–20%) and MeCN (5–80%) over 15 min was used as a mobile phase at a 1 mL/min flow rate. […]
to 50 MBq/nmol. The 177Lu-DOTA-ALBs were used without further purification for their in vitro and in vivo evaluation.
S3. Radiolytic Stability of 177Lu-DOTA-ALBs
Purpose: The stability of each 177Lu-labeled DOTA-ALB was assessed at a high activ-ity concentration to assess potential radiolytic degradation in the absence and presence of […]
Methods: After quality control of the labeled DOTA-ALBs using HPLC (t0), the radio-labeled DOTA-ALBs (50 MBq/nmol) were diluted in PBS pH 7.4 to obtain an activity con-centration of 100 MBq/500 µL. The samples were incubated at room temperature in the absence or presence of L-ascorbic acid (3 mg). Sodium acetate solution (0.5 M, pH 8.0, 150 µL) was added to the samples containing L-ascorbic acid in order to adjust the pH value to ⁓6.5. The integrity of the radiolabeled DOTA-ALBs was assessed after a 4 h- and 24 h-incubation period using HPLC as described above (Supplementary Material, Section S2). The HPLC chromatograms were analyzed by determination of the peak area of the radio-labeled DOTA-ALBs, the released lutetium-177 as well as potential degradation products of unknown structure. The quantity of the intact product was expressed as per-centage of the sum of integrated peak areas of the entire chromatogram and set in relation to the original value determined at t0 (radiochemical purity ≥95% set as 100%).
Results: The results are reported in the main article and presented together with the retention times of the product peak in Table S2.
Table S2. Radiolytic stability of 177Lu-DOTA-ALBs after incubation in the absence or presence of L-ascorbic acid at room temperature (average of n=2 individually performed experiments). […]

[2] = n-octanol/PBS distribution coefficient (shake-flask) of 177Lu-RedFols; format: physicochemical; settings: n-octanol/PBS pH 7.4
Protocol: The radiolytic stability of ^177Lu-RedFols (50 MBq/nmol) in PBS pH 7.4 was investigated at an activity concentration of 100 MBq in 500 µL over 24 h at room temperature. The n-octanol/PBS distribution coefficients (logD values) of the folate radioconjugates (50 MBq/nmol) were determined using the same shake-flask method as used for the ^177Lu-DOTA-ALBs, including statistical analysis (Supplementary Material, Section S4). […]
S4. n-Octanol/PBS Distribution Coefficient of 177Lu-DOTA-ALBs
Purpose: The n-octanol/PBS distribution coefficients (logD values) were determined for all 177Lu-DOTA-ALBs in order to assess their hydrophilic/hydrophobic properties.
Methods: The n-octanol/PBS distribution coefficients (logD values) of the 177Lu-DOTA-ALBs were determined as previously described. […] 4 . […]
The vials were vortexed vigorously for 1 min followed by centrifugation for 6 min at 560 rcf for phase separation. An aliquot was taken from each phase and measured in a γ-counter (Perkin Elmer, Wallac Wizard 1480, Waltham, MA, USA). The distribution coeffi-cients were calculated as the logarithm of the ratio of counts per minute (cpm) measured in the n-octanol phase relative to the cpm measured in the PBS phase. The results were listed as the average ± standard deviation (SD) of the data obtained from 2–3 independent experiments, each performed with five replicates. […]

SMILES	Intact radioligand ([1]; with L-ascorbic acid, 4 h) [%]	Intact radioligand ([1]; with L-ascorbic acid, 24 h) [%]	Intact radioligand ([1]; without L-ascorbic acid, 4 h) [%]	Intact radioligand ([1]; without L-ascorbic acid, 24 h) [%]	logD [2]	logD Values [2]
O=C(O)CN1CCN(CC(=O)O)CCN(CC(=O)NCCC(=O)N[C@@H](CCCCNC(=O)c2ccc(CNC(=O)CCCCc3ccc(I)cc3)cc2)C(=O)O)CCN(CC(=O)O)CC1.[177Lu] [[^177Lu]Lu-DOTA-ALB-25]	99	97	91	41	–	–
CN1c2c(nc(N)[nH]c2=O)NC[C@H]1CNc1ccc(C(=O)N[C@@H](CCC(=O)N[C@@H](CCCCNC(=O)CN2CCN(CC(=O)O)CCN(CC(=O)O)CCN(CC(=O)O)CC2)C(=O)N[C@@H](CCCCNC(=O)CCCCc2ccc(I)cc2)C(=O)O)C(=O)O)cc1 [[^177Lu]Lu-6R-RedFol-24, metal not drawn]	–	–	–	–	-3.4 ± 0.2	–
CN1c2c(nc(N)[nH]c2=O)NCC1CNc1ccc(C(=O)NC(CCC(=O)NC(CCCCNC(=O)CN2CCN(CC(=O)[O-])CCN(CC(=O)[O-])CCN(CC(=O)[O-])CC2)C(=O)NC(CCCCNC(=O)c2ccc(CNC(=O)CCCc3ccc(I)cc3)cc2)C(=O)O)C(=O)O)cc1.[177Lu+3] (stereo not drawn) [[^177Lu]Lu-6S-RedFol-3]	–	–	–	–	–	−3.2 ± 0.1
O=C(O)CN1CCN(CC(=O)O)CCN(CC(=O)NCCC(=O)N[C@@H](CCCCNC(=O)CCCc2ccc(I)cc2)C(=O)O)CCN(CC(=O)O)CC1.[177Lu] [[^177Lu]Lu-DOTA-ALB-1]	99	96	92	51	–	–
O=C(O)CN1CCN(CC(=O)O)CCN(CC(=O)NCCC(=O)N[C@@H](CCCCNC(=O)c2ccc(CNC(=O)CCCc3ccc(I)cc3)cc2)C(=O)O)CCN(CC(=O)O)CC1.[177Lu] [[^177Lu]Lu-DOTA-ALB-3]	99	97	89	39	–	–
CN1c2c(nc(N)[nH]c2=O)NC[C@H]1CNc1ccc(C(=O)N[C@@H](CCC(=O)N[C@@H](CCCCNC(=O)CN2CCN(CC(=O)O)CCN(CC(=O)O)CCN(CC(=O)O)CC2)C(=O)N[C@@H](CCCCNC(=O)c2ccc(CNC(=O)CCCc3ccc(I)cc3)cc2)C(=O)O)C(=O)O)cc1 [[^177Lu]Lu-6R-RedFol-3, metal not drawn]	–	–	–	–	–	−3.2 ± 0.1
CN1c2c(nc(N)[nH]c2=O)NCC1CNc1ccc(C(=O)NC(CCC(=O)NC(CCCCNC(=O)CN2CCN(CC(=O)[O-])CCN(CC(=O)[O-])CCN(CC(=O)[O-])CC2)C(=O)NC(CCCCNC(=O)c2ccc(CNC(=O)CCCCc3ccc(I)cc3)cc2)C(=O)O)C(=O)O)cc1.[177Lu+3] (stereo not drawn) [[^177Lu]Lu-6S-RedFol-25]	–	–	–	–	–	−3.0 ± 0.1
O=C(O)CN1CCN(CC(=O)O)CCN(CC(=O)NCCC(=O)N[C@@H](CCCCNC(=O)CCCCc2ccc(I)cc2)C(=O)O)CCN(CC(=O)O)CC1.[177Lu] [[^177Lu]Lu-DOTA-ALB-24]	99	95	88	39	–	–
CN1c2c(nc(N)[nH]c2=O)NC[C@H]1CNc1ccc(C(=O)N[C@@H](CCC(=O)N[C@@H](CCCCNC(=O)CN2CCN(CC(=O)O)CCN(CC(=O)O)CCN(CC(=O)O)CC2)C(=O)N[C@@H](CCCCNC(=O)c2ccc(CNC(=O)CCCCc3ccc(I)cc3)cc2)C(=O)O)C(=O)O)cc1 [[^177Lu]Lu-6R-RedFol-25, metal not drawn]	–	–	–	–	–	−3.0 ± 0.1
